Results on six molecules are retold here after ChEMBL document CHEMBL2073755, “TP-search Transporter Database” (Jpn Pharmacol Ther, 2001).

Usually Ki stands for a measure of affinity in units of concentration, obtained from inhibition or displacement. Read a low Ki as tighter binding. The Km is the concentration of substrate that gives half-maximal velocity.

The target in series [1] is T1, Solute carrier family 22 member 7 (Rattus norvegicus, UniProt Q5RLM2).
T1 sequence (Q5RLM2 whole entry): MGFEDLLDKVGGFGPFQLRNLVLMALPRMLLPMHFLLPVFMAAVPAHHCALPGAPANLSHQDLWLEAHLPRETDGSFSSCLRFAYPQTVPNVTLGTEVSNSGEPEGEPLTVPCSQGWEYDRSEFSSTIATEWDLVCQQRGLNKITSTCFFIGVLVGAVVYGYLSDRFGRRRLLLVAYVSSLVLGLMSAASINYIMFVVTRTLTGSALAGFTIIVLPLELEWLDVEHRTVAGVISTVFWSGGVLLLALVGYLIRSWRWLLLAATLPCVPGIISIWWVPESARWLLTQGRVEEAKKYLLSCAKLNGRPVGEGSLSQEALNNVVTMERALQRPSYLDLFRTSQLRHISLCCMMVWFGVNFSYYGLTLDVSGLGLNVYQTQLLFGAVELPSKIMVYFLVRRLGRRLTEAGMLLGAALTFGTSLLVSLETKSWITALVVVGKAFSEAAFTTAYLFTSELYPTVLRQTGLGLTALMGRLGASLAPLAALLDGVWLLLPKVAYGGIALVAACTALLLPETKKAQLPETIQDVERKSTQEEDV
Description: TP_TRANSPORTER: inhibition of Salicylate uptake in Oat2-expressing LLC PK1 cells. In kind it is functional, cell-based.

Series [2] addresses T2, Oat2 (Solute carrier family 22 member 7) (Rattus norvegicus, UniProt Q5RLM2).
T2 sequence (Q5RLM2 whole entry): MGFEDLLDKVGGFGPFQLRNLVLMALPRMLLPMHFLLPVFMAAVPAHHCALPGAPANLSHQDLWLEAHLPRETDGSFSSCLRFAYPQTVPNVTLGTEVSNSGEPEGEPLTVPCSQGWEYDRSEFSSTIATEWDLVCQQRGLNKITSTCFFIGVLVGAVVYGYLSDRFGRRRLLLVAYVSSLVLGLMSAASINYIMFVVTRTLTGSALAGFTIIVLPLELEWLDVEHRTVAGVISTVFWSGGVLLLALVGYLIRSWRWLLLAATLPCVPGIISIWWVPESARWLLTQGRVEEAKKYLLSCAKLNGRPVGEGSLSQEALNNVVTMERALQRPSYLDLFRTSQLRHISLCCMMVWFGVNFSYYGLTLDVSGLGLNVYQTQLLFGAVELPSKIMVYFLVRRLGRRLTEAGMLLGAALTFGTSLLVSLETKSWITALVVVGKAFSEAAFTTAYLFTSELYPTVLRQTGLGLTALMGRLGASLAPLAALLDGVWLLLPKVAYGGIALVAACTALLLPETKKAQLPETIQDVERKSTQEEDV
Kind of series: (§1) TP_TRANSPORTER: uptake in Oat2-expressing LLC PK1 cells. Format: functional, cell-based. Particulars: pig.

Substrate in series [3]: O=C(O)c1ccccc1O
Kind of series: cells, lysate or membranes named.

Substrate in series [4]: Nc1ccn([C@H]2CC[C@@H](CO)O2)c(=O)n1
Described as §1. In kind it is functional, cell-based.

The molecule `COc1ccc(Cl)cc1C(=O)NCCc1ccc(S(=O)(=O)NC(=O)NC2CCCCC2)cc1` [GLYBURIDE] displayed a Ki in series [1] of 12300 nM.

Take `CC1(C)C(/C=C/C=C/C=C/C=C2\N(CCCCS(=O)(=O)O)c3ccc4ccccc4c3C2(C)C)=[N+](CCCCS(=O)(=O)[O-])c2ccc3ccccc3c21` [INDOCYANINE GREEN]: affinity in series [1] was put at a Ki of 1150 nM.

As for `COc1ccc2c(c1)c(CC(=O)O)c(C)n2C(=O)c1ccc(Cl)cc1` [INDOMETHACIN], the Km in series [2] amounted to 0.366 µM.

Consider `CC(C(=O)O)c1cccc(C(=O)c2ccccc2)c1` (configuration not stated) [KETOPROFEN], for which, in series [1], the affinity, expressed as Ki, was 1840 nM.

Take `Cc1cn([C@H]2C[C@H](N=[N+]=[N-])[C@@H](CO)O2)c(=O)[nH]c1=O` [ZIDOVUDINE]: the Michaelis constant (Km) in series [2] was 26 µM.

B1: Solute carrier family 22 member 7 (Rattus norvegicus) (protein)
chain: MGFEDLLDKVGGFGPFQLRNLVLMALPRMLLPMHFLLPVFMAAVPAHHCALPGAPANLSHQDLWLEAHLPRETDGSFSSCLRFAYPQTVPNVTLGTEVSNSGEPEGEPLTVPCSQGWEYDRSEFSSTIATEWDLVCQQRGLNKITSTCFFIGVLVGAVVYGYLSDRFGRRRLLLVAYVSSLVLGLMSAASINYIMFVVTRTLTGSALAGFTIIVLPLELEWLDVEHRTVAGVISTVFWSGGVLLLALVGYLIRSWRWLLLAATLPCVPGIISIWWVPESARWLLTQGRVEEAKKYLLSCAKLNGRPVGEGSLSQEALNNVVTMERALQRPSYLDLFRTSQLRHISLCCMMVWFGVNFSYYGLTLDVSGLGLNVYQTQLLFGAVELPSKIMVYFLVRRLGRRLTEAGMLLGAALTFGTSLLVSLETKSWITALVVVGKAFSEAAFTTAYLFTSELYPTVLRQTGLGLTALMGRLGASLAPLAALLDGVWLLLPKVAYGGIALVAACTALLLPETKKAQLPETIQDVERKSTQEEDV
On to B1, for which the Km worked out at 81.2 µM in series [3] and 3000 µM in series [4].
